Source: publication PMC12684391, “Mechanistic insights into the monotherapy and combination potential of FEN1 inhibition in cancer therapy” (Nucleic Acids Research, 2025)

Legend:
EXO1 = target: T1, EXO1 (Homo sapiens, UniProt Q9UQ84); assay: Fluorescence-based nuclease activity assay, EXO1; type: biochemical; conditions: n = 3, SD = 223; cognate substrate
T1 construct: EXO1 (1-846); purchased Peak Proteins, Macclesfield, UK
Procedure: (§1) MSC778 was dissolved in dimethyl sulphoxide (DMSO) to give a 10 mM stock. FEN1/EXO1: compound was dispensed into black 384-shallow well microplates (Greiner #784076). The compound was dispensed as an 11-point dose response with a 3-fold serial dilution from a top concentration of 10 mM (to give a final in-assay concentration of 100 µM). GEN1/XPG: MSC778 was dispensed into black 1536-well plates (Greiner #782076). The compound was dispensed as a 20-point dose response with a 3-fold serial dilution from a top concentration of 10 mM (to give a final in-assay concentration of 100 µM). The volume of DMSO was adjusted to ensure that each well contained 1% (v/v) DMSO in the final assay. Control wells containing DMSO alone or inhibitor at sufficient concentration to cause complete inhibition of the reaction were also included. […]
(§2) 5 µl (FEN1/EXO1) or 3 µl per well (GEN1/XPG) of stop buffer (20 mM Tris pH 7.5, 300 mM EDTA) was added to all wells, then the plates were read on the CLARIOstar Plus (BMG LABTECH Ltd.) using the Fluorescein (FITC) wavelengths (Ex 483 ± 14, Em 530 ± 30, Dichroic auto/502.5) and auto focal height/gain settings.
(§3) All data analysis was carried out using Genedata Screener software. IC50 values were calculated using the SmartFit function.

FEN1 = target: T2, FEN1 (Homo sapiens, UniProt P39748); assay: Fluorescence-based 5′-flap cleavage assay of FEN1 nuclease activity; type: biochemical
T2 construct: Full-length FEN1 (1-380) was expressed in Escherichia coli; 6His; made in house; host or cells: Escherichia coli
T2 sequence (P39748 whole entry): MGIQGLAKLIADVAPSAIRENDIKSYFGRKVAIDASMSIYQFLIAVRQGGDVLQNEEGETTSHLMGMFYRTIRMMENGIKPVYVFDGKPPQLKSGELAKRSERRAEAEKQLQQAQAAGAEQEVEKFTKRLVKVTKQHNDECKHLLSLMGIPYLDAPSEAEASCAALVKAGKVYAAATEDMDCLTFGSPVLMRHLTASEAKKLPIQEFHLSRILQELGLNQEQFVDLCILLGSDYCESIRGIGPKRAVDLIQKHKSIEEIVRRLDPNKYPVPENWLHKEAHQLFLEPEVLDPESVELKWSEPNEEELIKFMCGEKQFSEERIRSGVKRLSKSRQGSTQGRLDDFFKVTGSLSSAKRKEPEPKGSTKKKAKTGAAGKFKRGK
Procedure: as §1, with “assay.” for “assay. Control wells containing DMSO alone or inhibitor at sufficient concentration to cause complete inhibition of the reaction were also included.”
as §2, §3
A fluorescence-based 5′-flap cleavage assay, in which quenching of the fluorescence of a fluorescein amidite (FAM) moiety is alleviated by nucleolytic cleavage, was used to measure the nuclease activity of FEN1 (Fig. 1B and Supplementary Fig. S1A). […]

NanoLuc-FEN1 = target: T3, NanoLuc-FEN1 (Homo sapiens, UniProt P39748); assay: NanoBRET cellular target engagement assay in HEK-293 cells; type: cell-based; conditions: more potent than MSC781
T3 construct: host or cells: HEK-293
T3 sequence (P39748 whole entry): as above
Procedure: The NanoBRET™ assay was set-up and performed by Promega, Madison, USA [40]. The tracer compound (“tracer 6”) was synthesized based on an in-house compound. A NanoLuc®-FEN1 expression plasmid was transiently transfected into HEK-293 cells and 20 µl of subsequent cell/DNA suspension dispensed into wells of 384-well assay plates. Tracer 6 (final concentration 125 nM) and test compounds (10 step 1:3 dilution from a top concentration of 10 µM) in 100% DMSO were dispensed with a Echo Labcyte (Beckman Coulter) in technical duplicates.
To induce NanoLuc activity, 10 µl of 3× detection substrate NanoBRET™ Nano-GLO® Live Cell Solution in OptiMEM with digitonin (final concentration 150 µg/ml) were added per well. Kinetics were followed by luminescence multimode reader (DonorEm 450nm/AcceptorEm 610 nm) for 1 h. BRET ratios were calculated and resulting mBRET values were graphed versus compound concentrations and fitted to a nonlinear regression curve (four parameters) to determine IC50 values.
In this assay, NanoBRET occurs between a fluorescent moiety (acceptor) on a tracer molecule and the NanoLuc tag (donor) on FEN1 that are in close proximity.

[1] = tested on: SUM149PT 53BP1KO and SHLD2KO cells; assay: Cell viability assay (CTG), 7 days, PARP inhibitor resistant models; type: cell-based; conditions: less sensitive than parental
Procedure: (§4) Cells were seeded in 150 μl of media in 96-well plates or in 70 μl of media in 384-well plates pre-dosed with compounds (8–10 points dose response) with a D300e digital dispenser (Tecan) and incubated for 24 h at 37°C and 5% CO2. Cell proliferation at the end of the assay (7 days) was measured using CTG (Promega, G9243). CTG luminescence was normalized to vehicle treated control for each cell line, and data were fitted with a nonlinear regression curve (four parameters) to generate compound sensitivity curves and determine IC50 or EC50 (half maximal inhibitory/effective concentration) values as indicated.

HAP1 USP1KO cells = assay: Cell viability assay (CTG), 7 days; type: cell-based; conditions: two independent USP1KO lines
Procedure: as §4

DLD-1 cells = assay: Cell viability assay (AlamarBlue), 7 days; type: cell-based; conditions: Homo sapiens, 168 h, DLD-1 wild-type, N = 3
Procedure: Cells were seeded in 96-well plates and treated the day after seeding with a serial dilution of compounds in technical duplicates. After 7 days, viability was analyzed using the AlamarBlue reagent (BioRad). AlamarBlue was added in an amount equal to 10% of the volume in the well and after a 4–6 h incubation viability was determined by fluorescence analysis using a standard plate reader. Fluorescence was normalized to vehicle treated control for each cell line, and data were fitted in Genedata Screener to generate compound sensitivity curves and determine IC50 or EC50 (half maximal inhibitory/effective concentration) values as indicated.

T1 sequence (Q9UQ84 whole entry): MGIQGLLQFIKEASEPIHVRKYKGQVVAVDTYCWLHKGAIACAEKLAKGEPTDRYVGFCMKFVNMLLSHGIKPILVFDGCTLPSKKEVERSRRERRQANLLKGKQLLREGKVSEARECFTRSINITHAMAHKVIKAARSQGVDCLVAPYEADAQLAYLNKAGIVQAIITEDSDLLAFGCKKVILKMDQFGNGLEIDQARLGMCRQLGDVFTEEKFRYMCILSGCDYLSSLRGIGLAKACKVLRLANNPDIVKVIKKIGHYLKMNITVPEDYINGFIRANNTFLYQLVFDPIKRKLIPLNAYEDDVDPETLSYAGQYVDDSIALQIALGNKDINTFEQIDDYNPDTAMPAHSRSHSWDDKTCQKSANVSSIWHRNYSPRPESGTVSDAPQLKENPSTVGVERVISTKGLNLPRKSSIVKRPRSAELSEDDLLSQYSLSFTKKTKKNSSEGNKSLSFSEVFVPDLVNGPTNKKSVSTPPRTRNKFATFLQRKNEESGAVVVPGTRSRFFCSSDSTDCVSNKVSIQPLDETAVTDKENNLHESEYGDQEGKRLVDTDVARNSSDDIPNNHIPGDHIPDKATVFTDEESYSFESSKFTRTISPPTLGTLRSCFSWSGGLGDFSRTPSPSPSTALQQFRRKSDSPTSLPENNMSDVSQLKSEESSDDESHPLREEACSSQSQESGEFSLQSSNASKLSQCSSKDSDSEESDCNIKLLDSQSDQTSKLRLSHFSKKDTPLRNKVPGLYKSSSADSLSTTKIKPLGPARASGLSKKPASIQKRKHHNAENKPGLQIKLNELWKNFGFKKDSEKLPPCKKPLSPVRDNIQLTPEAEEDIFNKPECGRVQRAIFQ

IC50 (EXO1): 871 nM | Potency on FEN1 nuclease activity relative to MSC781 (FEN1; more potent than MSC781): 16 fold | IC50 (FEN1; n = 3, SD = 0.14, cognate 5′ flap substrate): 3.2 nM | NanoBRET potency relative to MSC781 (NanoLuc-FEN1): 23 fold | EC50 (DLD-1 cells): 2300 nM
SMILES: C[C@H](Oc1nn2c(c(O)c1=O)C(=O)N1CCOC[C@@H]1C2)c1ccc2ccc(Cl)cc2c1 [MSC778]
Change in sensitivity of SUM149PT 53BP1KO and SHLD2KO cells versus parental cells [1]: 2 fold | Sensitization of USP1KO cell lines compared to isogenic HAP1 WT cells (HAP1 USP1KO cells): 3 fold
